The results in this text go back to article PMC11314561, “Design and Synthesis of Novel Aminoindazole-pyrrolo[2,3-b]pyridine Inhibitors of IKKα That Selectively Perturb Cellular Non-Canonical NF-κB Signalling” (Molecules, 2024).

What all share (assay): kinase panel
Holding throughout (type): biochemical

In one assay the target is Fms(h) (Homo sapiens, UniProt P07333). The method, boiled down:
(§1)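 Three compounds in the series were profiled against a panel of 231 kinases, and activity is reported as % inhibition. For one compound, a subset of 98 kinases was selected on the basis of its structural similarity to another series member.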

A further assay concerns the target Aurora-B(h) (Homo sapiens, UniProt Q96GD4). In short, it runs like this:
as §1

Another assay has as its target CK2(h) (Homo sapiens, UniProt P68400). The method, boiled down:
as §1

The next assay addresses KDR(h) (Homo sapiens, UniProt P35968). The method, boiled down:
as §1

For the next assay, the target named is T1, DYRK2(h) (Homo sapiens, UniProt Q92630).
T1 sequence (Q92630 1-601): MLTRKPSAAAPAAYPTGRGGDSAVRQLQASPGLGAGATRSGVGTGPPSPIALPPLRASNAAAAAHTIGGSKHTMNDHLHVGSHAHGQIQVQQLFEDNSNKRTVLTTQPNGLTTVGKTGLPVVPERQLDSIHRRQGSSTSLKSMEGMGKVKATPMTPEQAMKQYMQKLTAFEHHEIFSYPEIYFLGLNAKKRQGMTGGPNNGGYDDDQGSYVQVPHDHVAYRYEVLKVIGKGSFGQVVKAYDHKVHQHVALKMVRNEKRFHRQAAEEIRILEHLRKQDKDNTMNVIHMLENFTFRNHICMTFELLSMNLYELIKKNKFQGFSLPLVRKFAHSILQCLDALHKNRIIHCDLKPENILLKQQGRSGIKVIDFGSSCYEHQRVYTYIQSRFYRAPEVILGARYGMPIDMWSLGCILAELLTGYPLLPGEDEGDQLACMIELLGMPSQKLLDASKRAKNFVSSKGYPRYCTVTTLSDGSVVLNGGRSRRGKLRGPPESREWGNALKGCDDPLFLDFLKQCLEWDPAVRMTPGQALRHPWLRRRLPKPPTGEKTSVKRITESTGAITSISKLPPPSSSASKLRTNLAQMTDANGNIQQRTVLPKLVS
In short, it runs like this:
as §1

The target in a further assay is T2, PKCμ(h) (Homo sapiens, UniProt Q15139).
T2 sequence (Q15139 1-912): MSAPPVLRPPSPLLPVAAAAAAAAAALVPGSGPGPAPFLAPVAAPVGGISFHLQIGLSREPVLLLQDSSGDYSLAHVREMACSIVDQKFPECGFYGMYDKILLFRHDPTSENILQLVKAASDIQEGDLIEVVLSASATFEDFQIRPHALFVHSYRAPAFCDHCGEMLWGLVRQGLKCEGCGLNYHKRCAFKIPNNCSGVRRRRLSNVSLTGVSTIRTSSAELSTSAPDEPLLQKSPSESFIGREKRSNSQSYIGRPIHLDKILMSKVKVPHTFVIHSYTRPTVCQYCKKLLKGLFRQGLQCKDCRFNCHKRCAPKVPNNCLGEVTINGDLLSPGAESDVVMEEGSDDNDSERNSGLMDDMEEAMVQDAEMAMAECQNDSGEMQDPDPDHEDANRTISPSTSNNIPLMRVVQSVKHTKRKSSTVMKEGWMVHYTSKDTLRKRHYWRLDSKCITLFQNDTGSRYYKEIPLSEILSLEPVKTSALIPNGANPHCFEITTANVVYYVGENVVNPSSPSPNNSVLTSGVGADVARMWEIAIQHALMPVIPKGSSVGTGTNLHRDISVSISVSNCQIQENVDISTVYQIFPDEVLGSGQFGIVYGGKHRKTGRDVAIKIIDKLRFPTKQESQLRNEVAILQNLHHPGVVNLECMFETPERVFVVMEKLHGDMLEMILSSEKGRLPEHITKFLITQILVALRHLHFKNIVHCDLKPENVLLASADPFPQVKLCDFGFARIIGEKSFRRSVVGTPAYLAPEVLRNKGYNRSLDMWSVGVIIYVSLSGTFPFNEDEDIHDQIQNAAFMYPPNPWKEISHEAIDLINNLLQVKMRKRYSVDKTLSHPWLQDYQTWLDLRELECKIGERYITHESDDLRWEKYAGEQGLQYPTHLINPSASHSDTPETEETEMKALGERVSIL
In short, it runs like this:
as §1

The target in another assay is CaMKIIβ(h) (Homo sapiens, UniProt Q13554). The method, boiled down:
as §1

For another assay, the target named is T3, Mer(h) (Homo sapiens, UniProt Q12866).
T3 sequence (Q12866 21-999): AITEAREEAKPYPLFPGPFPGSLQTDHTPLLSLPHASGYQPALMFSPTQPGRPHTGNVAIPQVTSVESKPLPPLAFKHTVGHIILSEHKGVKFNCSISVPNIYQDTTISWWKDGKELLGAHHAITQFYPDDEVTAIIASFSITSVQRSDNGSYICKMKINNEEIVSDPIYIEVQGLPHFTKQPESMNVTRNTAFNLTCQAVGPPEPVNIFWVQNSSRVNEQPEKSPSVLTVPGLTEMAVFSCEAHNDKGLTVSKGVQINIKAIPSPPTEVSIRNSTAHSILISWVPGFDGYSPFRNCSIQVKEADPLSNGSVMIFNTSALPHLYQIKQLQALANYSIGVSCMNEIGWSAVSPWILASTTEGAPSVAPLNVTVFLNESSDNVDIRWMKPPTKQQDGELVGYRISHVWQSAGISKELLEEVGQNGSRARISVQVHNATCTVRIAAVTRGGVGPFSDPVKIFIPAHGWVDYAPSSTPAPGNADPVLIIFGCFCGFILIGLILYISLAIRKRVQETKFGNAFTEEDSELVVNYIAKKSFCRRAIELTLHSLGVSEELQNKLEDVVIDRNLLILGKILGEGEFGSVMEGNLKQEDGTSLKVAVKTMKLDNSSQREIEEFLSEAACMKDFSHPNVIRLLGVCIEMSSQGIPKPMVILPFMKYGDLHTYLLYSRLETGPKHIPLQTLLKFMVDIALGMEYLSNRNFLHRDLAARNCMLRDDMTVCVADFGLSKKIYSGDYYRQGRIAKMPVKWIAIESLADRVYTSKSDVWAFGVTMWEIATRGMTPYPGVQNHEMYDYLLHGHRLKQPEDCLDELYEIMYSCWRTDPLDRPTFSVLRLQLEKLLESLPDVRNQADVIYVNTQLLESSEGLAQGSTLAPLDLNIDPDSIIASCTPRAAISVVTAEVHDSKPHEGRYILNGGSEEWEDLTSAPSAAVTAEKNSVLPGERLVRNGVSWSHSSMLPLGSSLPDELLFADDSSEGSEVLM
The method, boiled down: as §1

The next assay addresses PRK2(h) (Homo sapiens, UniProt Q16513). The method, boiled down:
as §1

The term inhibition denotes the drop in the measured response relative to a control, in per cent.

Sequence of CK2(h) (P68400 whole entry): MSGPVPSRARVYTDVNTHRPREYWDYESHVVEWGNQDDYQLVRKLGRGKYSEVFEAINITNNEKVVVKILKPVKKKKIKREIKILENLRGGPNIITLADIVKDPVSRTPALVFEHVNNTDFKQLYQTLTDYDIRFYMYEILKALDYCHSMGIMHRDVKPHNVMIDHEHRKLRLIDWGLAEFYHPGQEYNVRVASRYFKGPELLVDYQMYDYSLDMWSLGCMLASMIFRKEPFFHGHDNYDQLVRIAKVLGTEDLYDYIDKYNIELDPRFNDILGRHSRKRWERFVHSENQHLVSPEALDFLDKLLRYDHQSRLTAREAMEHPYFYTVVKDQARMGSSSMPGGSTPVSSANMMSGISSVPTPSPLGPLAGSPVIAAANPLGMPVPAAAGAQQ
Sequence of CK2(h) (P67870 whole entry partner): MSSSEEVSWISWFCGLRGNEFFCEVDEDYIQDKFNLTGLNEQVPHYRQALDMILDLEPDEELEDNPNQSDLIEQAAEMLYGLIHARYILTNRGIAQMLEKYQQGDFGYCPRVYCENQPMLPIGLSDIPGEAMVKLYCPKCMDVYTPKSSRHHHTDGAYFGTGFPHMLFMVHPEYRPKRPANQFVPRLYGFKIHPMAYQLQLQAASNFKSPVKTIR
Sequence of PRK2(h) (Q16513 whole entry): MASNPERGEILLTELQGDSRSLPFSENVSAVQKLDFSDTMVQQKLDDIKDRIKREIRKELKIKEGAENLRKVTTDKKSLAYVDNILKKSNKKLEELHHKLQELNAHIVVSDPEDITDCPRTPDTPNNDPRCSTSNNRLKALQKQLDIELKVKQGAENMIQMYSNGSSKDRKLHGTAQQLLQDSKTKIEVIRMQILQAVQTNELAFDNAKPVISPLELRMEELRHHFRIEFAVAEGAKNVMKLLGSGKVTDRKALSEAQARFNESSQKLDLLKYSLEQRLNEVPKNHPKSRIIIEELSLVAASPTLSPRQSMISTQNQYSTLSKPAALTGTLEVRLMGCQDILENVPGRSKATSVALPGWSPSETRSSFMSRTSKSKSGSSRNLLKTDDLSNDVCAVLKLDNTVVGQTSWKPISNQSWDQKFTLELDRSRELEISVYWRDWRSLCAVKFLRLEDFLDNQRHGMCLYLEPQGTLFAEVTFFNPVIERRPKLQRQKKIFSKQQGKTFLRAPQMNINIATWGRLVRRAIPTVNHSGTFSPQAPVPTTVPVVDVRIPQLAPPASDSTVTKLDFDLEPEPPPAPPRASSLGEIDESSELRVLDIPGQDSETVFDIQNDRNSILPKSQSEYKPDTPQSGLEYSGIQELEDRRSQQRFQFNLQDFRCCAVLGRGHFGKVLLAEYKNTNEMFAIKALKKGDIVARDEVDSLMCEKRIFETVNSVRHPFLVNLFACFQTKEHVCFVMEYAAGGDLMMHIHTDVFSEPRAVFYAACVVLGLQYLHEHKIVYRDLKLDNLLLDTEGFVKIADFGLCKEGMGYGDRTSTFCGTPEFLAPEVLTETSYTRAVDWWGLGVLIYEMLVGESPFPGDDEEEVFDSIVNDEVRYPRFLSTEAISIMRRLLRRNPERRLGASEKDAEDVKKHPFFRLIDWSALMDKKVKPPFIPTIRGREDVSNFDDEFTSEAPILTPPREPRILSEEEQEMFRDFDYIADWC
Sequence of CaMKIIβ(h) (Q13554 whole entry): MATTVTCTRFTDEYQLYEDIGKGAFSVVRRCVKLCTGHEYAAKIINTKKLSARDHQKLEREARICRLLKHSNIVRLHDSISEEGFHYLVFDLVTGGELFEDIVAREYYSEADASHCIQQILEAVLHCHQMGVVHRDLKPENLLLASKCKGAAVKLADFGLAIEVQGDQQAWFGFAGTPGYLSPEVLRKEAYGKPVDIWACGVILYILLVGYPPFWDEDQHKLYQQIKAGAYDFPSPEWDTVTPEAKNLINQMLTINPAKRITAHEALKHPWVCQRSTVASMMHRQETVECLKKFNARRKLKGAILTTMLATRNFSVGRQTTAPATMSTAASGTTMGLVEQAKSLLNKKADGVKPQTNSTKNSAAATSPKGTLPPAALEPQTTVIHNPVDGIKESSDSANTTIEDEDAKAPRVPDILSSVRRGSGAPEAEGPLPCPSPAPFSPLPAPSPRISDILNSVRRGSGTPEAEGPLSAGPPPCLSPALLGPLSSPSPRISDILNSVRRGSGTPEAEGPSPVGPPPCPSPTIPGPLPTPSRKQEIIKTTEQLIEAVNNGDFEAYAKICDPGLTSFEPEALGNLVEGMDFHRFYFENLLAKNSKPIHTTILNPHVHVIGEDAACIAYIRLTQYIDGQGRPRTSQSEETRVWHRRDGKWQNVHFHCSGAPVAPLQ
Sequence of Aurora-B(h) (Q96GD4 whole entry): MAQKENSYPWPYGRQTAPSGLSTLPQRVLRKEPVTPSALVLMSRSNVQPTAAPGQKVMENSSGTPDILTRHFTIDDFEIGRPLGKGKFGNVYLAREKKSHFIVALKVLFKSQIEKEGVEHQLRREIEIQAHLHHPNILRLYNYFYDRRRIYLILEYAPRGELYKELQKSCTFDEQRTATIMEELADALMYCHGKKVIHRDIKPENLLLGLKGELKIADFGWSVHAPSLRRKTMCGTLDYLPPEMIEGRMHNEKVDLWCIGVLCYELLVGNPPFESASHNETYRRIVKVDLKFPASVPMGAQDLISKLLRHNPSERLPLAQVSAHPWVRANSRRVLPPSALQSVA
Sequence of Fms(h) (P07333 20-972): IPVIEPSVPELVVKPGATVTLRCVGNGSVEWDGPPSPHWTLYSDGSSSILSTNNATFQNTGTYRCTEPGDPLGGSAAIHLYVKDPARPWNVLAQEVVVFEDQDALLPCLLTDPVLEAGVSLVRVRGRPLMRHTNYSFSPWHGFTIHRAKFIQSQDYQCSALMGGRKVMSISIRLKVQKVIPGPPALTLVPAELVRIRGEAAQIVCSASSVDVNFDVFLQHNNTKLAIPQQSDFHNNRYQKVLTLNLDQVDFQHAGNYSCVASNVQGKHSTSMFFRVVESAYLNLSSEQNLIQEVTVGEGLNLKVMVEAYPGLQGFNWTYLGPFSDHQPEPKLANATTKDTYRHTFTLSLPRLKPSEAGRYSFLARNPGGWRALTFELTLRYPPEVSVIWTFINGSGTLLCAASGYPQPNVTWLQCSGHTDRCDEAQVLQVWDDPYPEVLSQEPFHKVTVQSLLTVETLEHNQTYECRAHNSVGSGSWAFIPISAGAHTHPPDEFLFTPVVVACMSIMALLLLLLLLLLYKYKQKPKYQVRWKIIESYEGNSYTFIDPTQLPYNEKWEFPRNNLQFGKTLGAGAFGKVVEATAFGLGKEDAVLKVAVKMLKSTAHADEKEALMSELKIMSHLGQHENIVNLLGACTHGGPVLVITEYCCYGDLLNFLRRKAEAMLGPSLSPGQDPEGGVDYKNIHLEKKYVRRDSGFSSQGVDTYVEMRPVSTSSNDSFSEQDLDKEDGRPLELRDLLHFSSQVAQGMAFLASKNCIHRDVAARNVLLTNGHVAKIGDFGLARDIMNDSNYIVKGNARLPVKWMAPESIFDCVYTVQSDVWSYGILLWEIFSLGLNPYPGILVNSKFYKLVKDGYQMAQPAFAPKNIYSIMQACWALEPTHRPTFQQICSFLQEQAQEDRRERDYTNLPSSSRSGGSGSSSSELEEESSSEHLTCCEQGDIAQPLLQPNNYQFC
Sequence of KDR(h) (P35968 20-1356): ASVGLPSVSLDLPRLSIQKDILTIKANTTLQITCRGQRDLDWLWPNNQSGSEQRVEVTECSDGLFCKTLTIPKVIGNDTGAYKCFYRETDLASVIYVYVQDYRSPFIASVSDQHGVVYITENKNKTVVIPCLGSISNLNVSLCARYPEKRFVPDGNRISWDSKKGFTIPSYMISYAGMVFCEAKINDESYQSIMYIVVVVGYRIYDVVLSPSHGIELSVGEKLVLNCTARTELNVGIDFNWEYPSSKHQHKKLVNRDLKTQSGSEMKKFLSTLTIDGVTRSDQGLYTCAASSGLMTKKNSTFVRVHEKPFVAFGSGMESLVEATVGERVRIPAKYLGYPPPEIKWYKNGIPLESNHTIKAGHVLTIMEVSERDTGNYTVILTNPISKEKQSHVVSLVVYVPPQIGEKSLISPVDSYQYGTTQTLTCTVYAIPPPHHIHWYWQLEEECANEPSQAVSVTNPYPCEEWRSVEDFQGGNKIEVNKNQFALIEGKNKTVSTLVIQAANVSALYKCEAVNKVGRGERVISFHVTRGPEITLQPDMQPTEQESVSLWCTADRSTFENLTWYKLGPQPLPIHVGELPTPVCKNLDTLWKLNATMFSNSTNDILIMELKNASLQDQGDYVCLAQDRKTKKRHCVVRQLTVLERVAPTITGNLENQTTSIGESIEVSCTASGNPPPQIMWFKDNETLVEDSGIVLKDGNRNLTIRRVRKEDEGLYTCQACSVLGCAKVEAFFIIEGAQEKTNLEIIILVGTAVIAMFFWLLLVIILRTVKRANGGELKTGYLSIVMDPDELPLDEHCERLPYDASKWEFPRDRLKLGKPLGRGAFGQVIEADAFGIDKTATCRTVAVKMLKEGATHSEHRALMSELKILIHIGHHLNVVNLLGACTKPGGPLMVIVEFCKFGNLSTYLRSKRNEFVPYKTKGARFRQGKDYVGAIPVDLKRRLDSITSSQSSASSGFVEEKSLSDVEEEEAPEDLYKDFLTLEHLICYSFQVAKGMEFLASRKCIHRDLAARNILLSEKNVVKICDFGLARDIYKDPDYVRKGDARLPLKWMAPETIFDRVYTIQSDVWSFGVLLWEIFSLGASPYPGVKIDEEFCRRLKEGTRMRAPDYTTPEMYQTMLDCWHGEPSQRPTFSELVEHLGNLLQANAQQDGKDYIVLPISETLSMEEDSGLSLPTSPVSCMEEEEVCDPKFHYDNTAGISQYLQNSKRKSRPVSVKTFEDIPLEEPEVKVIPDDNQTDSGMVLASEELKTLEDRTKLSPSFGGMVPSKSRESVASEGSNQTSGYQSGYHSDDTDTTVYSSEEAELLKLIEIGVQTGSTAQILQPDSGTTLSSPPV

As to `Nc1n[nH]c2ccc(-c3ccnc4[nH]c(-c5ccccc5)cc34)cc12` [Compound 4], the inhibition at 1 µM is 91% against Fms(h); 99% against Aurora-B(h); -7% against CK2(h); 93% on KDR(h); 43% against DYRK2(h); 21% at PKCμ(h). The inhibition at 1 µM against CaMKIIβ(h) is 74%; against Mer(h) it was 88%; against PRK2(h) it was 85%.
As for `Nc1n[nH]c2ccc(-c3ccnc4[nH]c(-c5cccc(OCc6ccccc6)c5)cc34)cc12` [Compound 5r [SU1261]], the inhibition at 1 µM against Fms(h) is 58%; against Aurora-B(h), 92%; on CK2(h) it was -5%; at KDR(h), 42%; against DYRK2(h), 14%; at PKCμ(h), 18%. The inhibition at 1 µM at CaMKIIβ(h) worked out at 47%; against Mer(h), 27%; at PRK2(h), 56%.
For `Nc1n[nH]c2ccc(-c3ccnc4[nH]c(-c5ccnc(OCc6ccccc6)c5)cc34)cc12` [Compound 6g [SU1349]], the inhibition at 1 µM against Fms(h) was 10%; at Aurora-B(h), 71%; against CK2(h) it was 2%; on KDR(h), 26%; on DYRK2(h), 9%; against PKCμ(h), -9%. For the same compound, the inhibition at 1 µM against CaMKIIβ(h) was 12%; against Mer(h), 12%; on PRK2(h), 19%.
